From PubChem BioAssay AID248 (DTP/NCI, 2004)
Inconclusive results and toxic doses are left out. Cut-off read from the data, not from the text of the source: active = T/C of 150% or more; inactive = T/C below 125%.

System: L1210 leukemia ip in BDF1 mice, survival T/C
Assay: NCI In Vivo Anticancer Drug Screen. Data for tumor model L1210 Leukemia (intraperitoneal) in B6D2F1 (BDF1) mice
Conditions: endpoint: mean survival time, higher = longer survival
Summary of the method: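 Tumor was transplanted into mice, which were then dosed with test compound or vehicle alone. Survival was recorded for each group, and the treated figure was expressed relative to the control figure.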

[1] = dose: 6.25 mg/kg/injection, schedule: Q01DX009 (ip), vehicle: saline
[2] = dose: 50.0 mg/kg/injection, schedule: Q01DX001 (ip), vehicle: saline
[3] = dose: 100.0 mg/kg/injection, schedule: Q01DX001 (ip), vehicle: saline
[4] = dose: 200.0 mg/kg/injection, schedule: Q01DX001 (ip), vehicle: saline
[5] = dose: 400.0 mg/kg/injection, schedule: Q01DX001 (ip), vehicle: saline
[6] = dose: 100.0 mg/kg/injection, schedule: Q04DX003 (ip), vehicle: Klucel (hydroxypropylcellulose) (HPC)
[7] = dose: 200.0 mg/kg/injection, schedule: Q04DX003 (ip), vehicle: Klucel (hydroxypropylcellulose) (HPC)
[8] = dose: 400.0 mg/kg/injection, schedule: Q04DX003 (ip), vehicle: Klucel (hydroxypropylcellulose) (HPC)
[9] = dose: 50.0 mg/kg/injection, schedule: Q01DX009 (ip), vehicle: saline with Tween-80
[10] = dose: 100.0 mg/kg/injection, schedule: Q01DX009 (ip), vehicle: saline with Tween-80
[11] = dose: 100.0 mg/kg/injection, schedule: Q04DX003 (ip), vehicle: saline with Tween-80
[12] = dose: 200.0 mg/kg/injection, schedule: Q04DX003 (ip), vehicle: saline with Tween-80
[13] = dose: 400.0 mg/kg/injection, schedule: Q04DX003 (ip), vehicle: saline with Tween-80
[14] = dose: 12.5 mg/kg/injection, schedule: Q01DX009 (ip), vehicle: saline
[15] = dose: 12.5 mg/kg/injection, schedule: Q04DX003 (ip), vehicle: saline
[16] = dose: 25.0 mg/kg/injection, schedule: Q01DX009 (ip), vehicle: saline
[17] = dose: 25.0 mg/kg/injection, schedule: Q04DX003 (ip), vehicle: saline
[18] = dose: 100.0 mg/kg/injection, schedule: Q01DX001 (ip), vehicle: carboxymethylcellulose (CMC)
[19] = dose: 200.0 mg/kg/injection, schedule: Q01DX001 (ip), vehicle: carboxymethylcellulose (CMC)
[20] = dose: 200.0 mg/kg/injection, schedule: Q01DX009 (ip), vehicle: saline with Tween-80
[21] = dose: 400.0 mg/kg/injection, schedule: Q01DX009 (ip), vehicle: saline with Tween-80

Measured: T/C

CN(C)c1ccc(/C(=N\O)c2cc[n+](C)cc2)cc1
inactive: dose: 1.56 mg/kg/injection, schedule: Q01DX009 (ip), vehicle: saline 98 % of control | dose: 3.13 mg/kg/injection, schedule: Q01DX009 (ip), vehicle: saline 111 % of control | [1] 104 % of control

COc1nc(OC)c(OP(=O)(OC)OC)c(OC)n1
inactive: [2] 95 % of control | [3] 98 % of control | [4] 89 % of control | [5] 95 % of control

S=P(c1ccccc1)(c1ccccc1)c1cccc2ccccc12
inactive: [3] 100 % of control | [4] 94 % of control | [5] 94 % of control

CCCCCCCCCCCCCCCCCCOc1ccc(Sc2ccc([N+](=O)[O-])cc2)cc1
inactive: [6] 87 % of control | [7] 88 % of control | [8] 88 % of control

Oc1ccc(F)c2cccnc12
inactive: dose: 50.0 mg/kg/injection, schedule: Q01DX001 (ip), vehicle: carboxymethylcellulose (CMC) 101 % of control

NC(N1CC1)(C(F)(F)F)C(F)(F)F
inactive: dose: 20.0 mg/kg/injection, schedule: Q01DX001 (ip), vehicle: saline 100 % of control | dose: 20.0 mg/kg/injection, schedule: Q04DX003 (ip), vehicle: saline 102 % of control | dose: 40.0 mg/kg/injection, schedule: Q01DX001 (ip), vehicle: saline 111 % of control | dose: 40.0 mg/kg/injection, schedule: Q04DX003 (ip), vehicle: saline 102 % of control | dose: 80.0 mg/kg/injection, schedule: Q01DX001 (ip), vehicle: saline 102 % of control | dose: 80.0 mg/kg/injection, schedule: Q04DX003 (ip), vehicle: saline 94 % of control

Cc1c(Cl)nc(Cl)nc1Cl
inactive: dose: 8.0 mg/kg/injection, schedule: Q01DX015 (ip), vehicle: carboxymethylcellulose (CMC) 104 % of control | dose: 16.0 mg/kg/injection, schedule: Q01DX015 (ip), vehicle: carboxymethylcellulose (CMC) 98 % of control | dose: 32.0 mg/kg/injection, schedule: Q01DX015 (ip), vehicle: carboxymethylcellulose (CMC) 96 % of control | [2] 101 % of control | dose: 64.0 mg/kg/injection, schedule: Q01DX015 (ip), vehicle: carboxymethylcellulose (CMC) 106 % of control | dose: 75.0 mg/kg/injection, schedule: Q01DX015 (ip), vehicle: carboxymethylcellulose (CMC) 98 % of control | [3] 101 % of control | dose: 150.0 mg/kg/injection, schedule: Q01DX015 (ip), vehicle: carboxymethylcellulose (CMC) 91 % of control | [4] 104 % of control | [5] 104 % of control

c1ccc(-c2cc(-c3ccccc3)[s+]s2)cc1
inactive: [9] 100 % of control | [10] 90 % of control | [11] 113 % of control | [12] 92 % of control | [13] 88 % of control

O=C(O)c1ccccc1C(=O)Nc1ccc([N+](=O)[O-])cc1
inactive: dose: 25.0 mg/kg/injection, schedule: Q04DX003 (ip), vehicle: saline with Tween-80 93 % of control | dose: 50.0 mg/kg/injection, schedule: Q04DX003 (ip), vehicle: saline with Tween-80 90 % of control | [11] 98 % of control

Cc1cc(Sc2cc(C)[n+]([O-])c(C)c2)cc(C)[n+]1[O-]
inactive: [6] 103 % of control | [7] 100 % of control | [8] 114 % of control

Cc1ccc(C)c2c3c(oc12)CCCC3
inactive: [3] 91 % of control | [4] 94 % of control | [5] 105 % of control

CC(=O)ON1CCC=NC1
inactive: dose: 50.0 mg/kg/injection, schedule: Q04DX002 (ip), vehicle: saline 102 % of control | dose: 100.0 mg/kg/injection, schedule: Q04DX002 (ip), vehicle: saline 91 % of control | dose: 200.0 mg/kg/injection, schedule: Q04DX002 (ip), vehicle: saline 91 % of control | dose: 400.0 mg/kg/injection, schedule: Q04DX002 (ip), vehicle: saline 109 % of control

CCC[N+](C)(C)CCCCOCCCC[N+](C)(C)CCC
inactive: dose: 3.12 mg/kg/injection, schedule: Q01DX009 (ip), vehicle: saline 104 % of control | [1] 92 % of control | [14] 103 % of control | [15] 95 % of control

CC(C)(C)c1ccc(N)cc1Br
inactive: dose: 12.5 mg/kg/injection, schedule: Q01DX009 (ip), vehicle: saline with Tween-80 95 % of control | dose: 25.0 mg/kg/injection, schedule: Q01DX009 (ip), vehicle: saline with Tween-80 93 % of control | [9] 97 % of control | [11] 92 % of control | [12] 96 % of control

O=C(C[n+]1ccccc1)CC(O)(C(F)(F)F)C(F)(F)F
inactive: [11] 104 % of control | [12] 103 % of control | [13] 98 % of control

O=CC(OC(=O)c1ccccc1)C(OC(=O)c1ccccc1)C(CO)OC(=O)c1ccccc1 (centres undefined)
inactive: dose: 100.0 mg/kg/injection, schedule: Q01DX001 (ip), vehicle: Klucel (hydroxypropylcellulose) (HPC) 106 % of control | dose: 200.0 mg/kg/injection, schedule: Q01DX001 (ip), vehicle: Klucel (hydroxypropylcellulose) (HPC) 95 % of control | dose: 400.0 mg/kg/injection, schedule: Q01DX001 (ip), vehicle: Klucel (hydroxypropylcellulose) (HPC) 98 % of control

CC#CC#C/C=C1/C=CC(=O)O1
inactive: [1] 98 % of control | dose: 6.25 mg/kg/injection, schedule: Q04DX003 (ip), vehicle: saline 96 % of control | [14] 105 % of control | [15] 103 % of control | [16] 94 % of control | [17] 91 % of control

Nc1ncnc2c1ncn2C1OC(CO)C(S)C1O (centres undefined)
inactive: [18] 105 % of control | [19] 92 % of control

CCOC(=O)CC(=O)c1ccccc1SC
inactive: [11] 102 % of control | [12] 100 % of control | [13] 91 % of control

CC(=O)Nc1c(F)c(F)c(N=Nc2ccccc2)c(F)c1F
inactive: [18] 100 % of control | [19] 102 % of control | dose: 400.0 mg/kg/injection, schedule: Q01DX001 (ip), vehicle: carboxymethylcellulose (CMC) 100 % of control

N#CC(C#N)=Cc1c[nH]c2ccccc12
inactive: [10] 86 % of control | [11] 95 % of control | [20] 89 % of control | [12] 97 % of control | [21] 86 % of control

CCOC(=O)CNC(=O)Oc1cccc2cccnc12
inactive: [10] 103 % of control | [20] 101 % of control

O=C(NCc1cnccn1)c1ccccc1Cl
inactive: [10] 86 % of control | [11] 96 % of control | [20] 104 % of control | [12] 96 % of control | [21] 102 % of control | [13] 104 % of control

CC1(C)CCN1Cc1ccccc1
inactive: dose: 12.0 mg/kg/injection, schedule: Q01DX001 (ip), vehicle: saline 98 % of control | dose: 12.0 mg/kg/injection, schedule: Q04DX003 (ip), vehicle: saline 95 % of control | [14] 95 % of control | dose: 25.0 mg/kg/injection, schedule: Q01DX001 (ip), vehicle: saline 100 % of control | [16] 101 % of control | [17] 101 % of control | [2] 96 % of control | dose: 50.0 mg/kg/injection, schedule: Q01DX009 (ip), vehicle: saline 123 % of control | dose: 50.0 mg/kg/injection, schedule: Q04DX003 (ip), vehicle: saline 96 % of control
